Data published in publication PMC6586847, “ATP binds and inhibits the neurodegeneration-associated fibrillization of the FUS RRM domain” (Communications Biology, 2019).

What follows are molecules tested against T1, FUS RRM domain (Homo sapiens, UniProt P35637) (assay: 1H-15N HSQC NMR titration, one-site fit of chemical shift differences).
T1 construct: RRM domain (285–370)
T1 sequence (P35637 284-371 limits assumed): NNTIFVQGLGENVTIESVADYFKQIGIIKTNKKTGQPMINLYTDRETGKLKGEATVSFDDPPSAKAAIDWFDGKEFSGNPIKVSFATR
Assay type: binding

| Kd | Compound |
| --- | --- |
| 17.2 ± 2.61 mM | Nc1ncnc2c1ncn2[C@@H]1O[C@H](COP(=O)(O)O)[C@@H](O)[C@H]1O [AMP] |
| 12.6 ± 3.53 mM | O=P(O)(O)OP(=O)(O)OP(=O)(O)O [PPP] |

| Compound | Kd |
| --- | --- |
| Nc1ncnc2c1ncn2[C@@H]1O[C@H](COP(=O)(O)OP(=O)(O)OP(=O)(O)O)[C@@H](O)[C@H]1O [ATP] | 3.77 ± 0.49 mM |
